In assay [1] the target is human phosphodiesterase 5 (PDE 5) (Homo sapiens (Human), UniProt O76074). The experiment in a line: Inhibition of human phosphodiesterase 5 (PDE 5), SPA assay. The conditions noted are these: PDE 5 preparation from human platelets, [8-3H] cGMP substrate. In kind it is biochemical. The method, then:
B-6. Inhibition of Human Phosphodiesterase 5 (PDE 5)
PDE 5 preparations are obtained from human platelets by disruption (Microfluidizer®, 800 bar, 3 passes), followed by centrifugation (75 000 g, 60 min, 4° C.) and ion exchange chromatography of the supernatant on a Mono Q 10/10 column (linear sodium chloride gradient, elution with a 0.2-0.3M solution of sodium chloride in buffer (20 mM Hepes pH 7.2, 2 mM magnesium chloride). Fractions having PDE 5 activity are combined (PDE 5 preparation) and stored at −80° C.
To determine their in vitro action on human PDE 5, the test substances are dissolved in 100% DMSO and serially diluted. Typically, dilution series (1:3) from 200 μM to 0.091 μM are prepared (resulting final concentrations in the test: 4 μM to 0.0018 μM). In each case 2 μl of the diluted substance solutions are placed into the wells of microtitre plates (Isoplate-96/200W; Perkin Elmer). Subsequently, 50 μl of a dilution of the above-described PDE 5 preparation are added. The dilution of the PDE 5 preparation is chosen such that during the later incubation less than 70% of the substrate are converted (typical dilution: 1:100; dilution buffer: 50 mM Tris/hydrochloric acid pH 7.5, 8.3 mM magnesium chloride, 1.7 mM EDTA, 0.2% BSA). The substrate, [8-^3H] cyclic guanosine-3′,5′-monophosphate (1 μCi/μl; Perkin Elmer) is diluted 1:2000 with assay buffer (50 mM tris/hydrochloric acid pH 7.5, 8.3 mM magnesium chloride, 1.7 mM EDTA) to a concentration of 0.0005 μCi/μl. By addition of 50 μl (0.025 μCi) of the diluted substrate, the enzyme reaction is finally started. The test mixtures are incubated at room temperature for 60 min and the reaction is stopped by adding 25 μl of a suspension of 18 mg/ml yttrium scintillation proximity beads in water (phosphodiesterase beads for SPA assays, RPNQ 0150, Perkin Elmer). The microtitre plates are sealed with a film and left to stand at room temperature for 60 min. Subsequently, the plates are analysed for 30 s per well in a Microbeta scintillation counter (Perkin Elmer). IC50 values are determined using the graphic plot of the substance concentration against percentage PDE 5 inhibition.

The test system of assay [2] is recombinant guanylate cyclase reporter cell line. Description: Effect on a recombinant guanylate cyclase reporter cell line. The class given is cell-based. The method, then: B-2. Effect on a Recombinant Guanylate Cyclase Reporter Cell Line
The cellular activity of the compounds according to the invention is determined using a recombinant guanylate cyclase reporter cell line, as described in F. Wunder et al., Anal. Biochem. 339, 104-112 (2005).

Assay [3] concerns aorta rings. Description: Vasorelaxant effect in vitro (phenylephrine-contracted aorta rings). The settings on record: Oryctolagus cuniculus, rabbit aorta rings, organ bath, phenylephrine contraction; read-out: IC50 (concentration needed to reduce the phenylephrine contraction by 50%). The method, then:
B-1. Vasorelaxant Effect In Vitro
Rabbits are stunned by a blow to the neck and exsanguinated. The aorta is removed, freed from adhering tissue and divided into rings of a width of 1.5 mm. The rings are placed individually under an initial tension in 5 ml organ baths with Krebs-Henseleit solution which is at 37° C., is gassed with carbogen and has the following composition (in each case mM): sodium chloride: 119; potassium chloride: 4.8; calcium chloride dihydrate: 1; magnesium sulphate heptahydrate: 1.4; potassium dihydrogenphosphate: 1.2; sodium bicarbonate: 25; glucose: 10. The contractile force is determined with Statham UC2 cells, amplified and digitalized using A/D transducers (DAS-1802 HC, Keithley Instruments Munich), and recorded in parallel on linear recorders.
To produce a contraction, phenylephrine is added to the bath cumulatively in increasing concentration. After several control cycles, the substance to be investigated is added in each further run in increasing dosage in each case, and the height of the contraction achieved is compared with the height of the contraction reached in the last preceding run. This is used to calculate the concentration needed to reduce the magnitude of the control value by 50% (IC50 value). The standard administration volume is 5 μl; the DMSO content in the bath solution corresponds to 0.1%.

From patent US9505786B2, “Substituted annulated triazines and use thereof” (BAYER INTELLECTUAL PROPERTY GMBH, priority 2012, dated 2016) come the findings set out here.

pIC50: −log10 of the molar value.

For `NC1(C(F)(F)F)C(=O)Nc2nc(-c3nn(Cc4ccccc4F)c4ncccc34)ncc21` (stereo not drawn) [Example 1, 5-Amino-2-[1-(2-fluorobenzyl)-1H-pyrazolo[3,4-b]pyridin-3-yl]-5-(trifluoromethyl)-5,7-dihydro-6H-pyrrolo[2,3-d]pyrimidin-6-one], the pIC50 in assay [1] was 5.92; in assay [3], 7.43. Further, the “MEC (minimum effective concentration)” value in assay [2] stood at 30 nM.

`O=C1Nc2nc(-c3nn(Cc4ccccc4F)c4ncccc34)ncc2C1(O)C(F)(F)C(F)(F)F` (stereo not drawn) [Example 3, 2-[1-(2-Fluorobenzyl)-1H-pyrazolo[3,4-b]pyridin-3-yl]-5-hydroxy-5-(pentafluoroethyl)-5,7-dihydro-6H-pyrrolo[2,3-d]pyrimidin-6-one]: the figures for the pIC50 in assay [1] and in assay [3] were 5.62 and 6.58, respectively. The “MEC (minimum effective concentration)” value in assay [2] was 30 nM.

`NC1(C(F)(F)C(F)(F)F)C(=O)Nc2nc(-c3nn(Cc4ccccc4F)c4ncccc34)ncc21` (stereo not drawn) [Example 4, 5-Amino-2-[1-(2-fluorobenzyl)-1H-pyrazolo[3,4-b]pyridin-3-yl]-5-(pentafluoroethyl)-5,7-dihydro-6H-pyrrolo[2,3-d]pyrimidin-6-one]: the pIC50 in assay [1] is 5.89; in assay [3], 6.67. In assay [2], the “MEC (minimum effective concentration)” value is 100 nM.

On to `O=C1Nc2nc(-c3nn(Cc4ccccc4F)c4ncc(F)cc34)nnc2C12CCCC2` [Example 9, 3′-[5-Fluoro-1-(2-fluorobenzyl)-1H-pyrazolo[3,4-b]pyridin-3-yl]spiro[cyclopentane-1,7′-pyrrolo[2,3-e][1,2,4]triazin]-6′(5′H)-one], for which the pIC50 in assay [1] was 5.70; in assay [3], 6.70. In assay [2], the “MEC (minimum effective concentration)” value was found to be 30 nM.

`Cc1ccc(Cn2nc(-c3nnc4c(n3)NC(=O)C4(C)C)c3cc(F)cnc32)c(F)c1` [Example 10, 3-[5-Fluoro-1-(2-fluoro-4-methylbenzyl)-1H-pyrazolo[3,4-b]pyridin-3-yl]-7,7-dimethyl-5,7-dihydro-6H-pyrrolo[2,3-e][1,2,4]triazin-6-one]: the pIC50 in assay [1] was 7.82; in assay [3], 6.56. Moreover, in assay [2], the “MEC (minimum effective concentration)” value came out at 300 nM.

Turning to `COc1cccc(Cn2nc(-c3nnc4c(n3)NC(=O)C4(C)C)c3cc(F)cnc32)c1F` [Example 11, 3-[5-Fluoro-1-(2-fluoro-3-methoxybenzyl)-1H-pyrazolo[3,4-b]pyridin-3-yl]-7,7-dimethyl-5,7-dihydro-6H-pyrrolo[2,3-e][1,2,4]triazin-6-one], the pIC50 in assay [1] was 6.60; in assay [3] it was 6.63. For the same molecule, the “MEC (minimum effective concentration)” value in assay [2] was 300 nM.

For `Cc1cccc(Cn2nc(-c3nnc4c(n3)NC(=O)C4(C)C)c3cc(F)cnc32)c1F` [Example 12, 3-[5-Fluoro-1-(2-fluoro-3-methylbenzyl)-1H-pyrazolo[3,4-b]pyridin-3-yl]-7,7-dimethyl-5,7-dihydro-6H-pyrrolo[2,3-e][1,2,4]triazin-6-one], the results for the pIC50 in assay [1] and in assay [3] were 6.24 and 6.17, respectively. Moreover, the “MEC (minimum effective concentration)” value in assay [2] amounted to 100 nM.

Turning to `CCOCCC1(C)C(=O)Nc2nc(-c3nn(Cc4ccccc4F)c4ncc(F)cc34)nnc21` (stereo not drawn) [Example 13, 7-(2-Ethoxyethyl)-3-[5-fluoro-1-(2-fluorobenzyl)-1H-pyrazolo[3,4-b]pyridin-3-yl]-7-methyl-5,7-dihydro-6H-pyrrolo[2,3-e][1,2,4]triazin-6-one], the pIC50 in assay [1] was 6.18; in assay [3] it was 5.80. For the same molecule, the “MEC (minimum effective concentration)” value in assay [2] is on record as 100 nM.

On to `CCOc1ccc(-c2nc(-c3nn(Cc4ccccc4F)c4ncccc34)nc3c2C(C)(C)C(=O)N3)cn1` [Example 14, 4-(6-Ethoxypyridin-3-yl)-2-[1-(2-fluorobenzyl)-1H-pyrazolo[3,4-b]pyridin-3-yl]-5,5-dimethyl-5,7-dihydro-6H-pyrrolo[2,3-d]pyrimidin-6-one], for which the pIC50 in assay [1] is 5.70; in assay [3], 6.38. For the same molecule, the “MEC (minimum effective concentration)” value in assay [2] is reported as 300 nM.

Regarding `CC1(C)C(=O)Nc2nc(-c3nn(Cc4ccccc4F)c4ncccc34)nc(-c3ccn[nH]3)c21` [Example 15, 2-[1-(2-Fluorobenzyl)-1H-pyrazolo[3,4-b]pyridin-3-yl]-5,5-dimethyl-4-(1H-pyrazol-5-yl)-5,7-dihydro-6H-pyrrolo[2,3-d]pyrimidin-6-one], the pIC50 in assay [1] was 7.40; in assay [3], 6.13. In addition, the “MEC (minimum effective concentration)” value in assay [2] is listed as 10 nM.

Consider `CC1(C)C(=O)Nc2nc(-c3nn(Cc4ccccc4F)c4ncccc34)nc(C#CC3CC3)c21` [Example 16, 4-(Cyclopropylethynyl)-2-[1-(2-fluorobenzyl)-1H-pyrazolo[3,4-b]pyridin-3-yl]-5,5-dimethyl-5,7-dihydro-6H-pyrrolo[2,3-d]pyrimidin-6-one], for which the pIC50 in assay [1] is 6.39; in assay [3] it was 6.21. Further, the “MEC (minimum effective concentration)” value in assay [2] was found to be 30 nM.

Consider `CC1(C)C(=O)Nc2nc(-c3nn(Cc4ccccc4F)c4ncccc34)nc(CCC3CC3)c21` [Example 17, 4-(2-Cyclopropylethyl)-2-[1-(2-fluorobenzyl)-1H-pyrazolo[3,4-b]pyridin-3-yl]-5,5-dimethyl-5,7-dihydro-6H-pyrrolo[2,3-d]pyrimidin-6-one], for which the pIC50 in assay [1] is 6.59; in assay [3], 5.62. Further, the “MEC (minimum effective concentration)” value in assay [2] is reported as 100 nM.

For the molecule `CC1(C)C(=O)Nc2nc(-c3nn(Cc4ccccc4F)c4ncccc34)nc(/C=C\C3CC3)c21` [Example 18, 4-[(Z)-2-Cyclopropylvinyl]-2-[1-(2-fluorobenzyl)-1H-pyrazolo[3,4-b]pyridin-3-yl]-5,5-dimethyl-5,7-dihydro-6H-pyrrolo[2,3-d]pyrimidin-6-one], the pIC50 in assay [1] is 6.82; in assay [3], 6.08. The “MEC (minimum effective concentration)” value in assay [2] was found to be 100 nM.

Take `Cc1nc2c(cc1F)c(-c1ncc3c(n1)NC(=O)C3(C)C)nn2Cc1ccccc1F` [Example 20, 2-[5-Fluoro-1-(2-fluorobenzyl)-6-methyl-1H-pyrazolo[3,4-b]pyridin-3-yl]-5,5-dimethyl-5,7-dihydro-6H-pyrrolo[2,3-d]pyrimidin-6-one]: the pIC50 in assay [1] was 6.04; in assay [3] it was 6.46. The “MEC (minimum effective concentration)” value in assay [2] was 100 nM.

As for `CC(C)Cc1nc(-c2nn(Cc3ccccc3F)c3ncccc23)nc2c1C(C)(C)C(=O)N2` [Example 29, 2-[1-(2-Fluorobenzyl)-1H-pyrazolo[3,4-b]pyridin-3-yl]-4-isobutyl-5,5-dimethyl-5,7-dihydro-6H-pyrrolo[2,3-d]pyrimidin-6-one], the pIC50 in assay [1] is 6.38; in assay [3], 6.11. Further, in assay [2], the “MEC (minimum effective concentration)” value stood at 100 nM.

For the molecule `CC1(C)C(=O)Nc2nc(-c3nn(Cc4ccccc4F)c4ncccc34)nc(CCCC(F)(F)F)c21` [Example 30, 2-[1-(2-Fluorobenzyl)-1H-pyrazolo[3,4-b]pyridin-3-yl]-5,5-dimethyl-4-(4,4,4-trifluorobutyl)-5,7-dihydro-6H-pyrrolo[2,3-d]pyrimidin-6-one], the pIC50 is 6.89 in assay [1] and 6.38 in assay [3]. Besides, in assay [2], the “MEC (minimum effective concentration)” value was found to be 100 nM.

Turning to `CC1(C)C(=O)Nc2nc(-c3nn(Cc4ccccc4F)c4ncccc34)nc(CCC(F)(F)F)c21` [Example 31, 2-[1-(2-Fluorobenzyl)-1H-pyrazolo[3,4-b]pyridin-3-yl]-5,5-dimethyl-4-(3,3,3-trifluoropropyl)-5,7-dihydro-6H-pyrrolo[2,3-d]pyrimidin-6-one], the pIC50 is 6.59 in assay [1] and 6.51 in assay [3]. In addition, the “MEC (minimum effective concentration)” value in assay [2] was 100 nM.
